Read-outs that look alike come from different tables or passages of the source.
Legend:
[1] = Solubility in water (ICP-MS); conditions: 25 °C, limit of detection = 5 ppt
Protocol: sonication, the mixtures were stirred at 25 °C for 1 h. The saturated solutions were filtered
to remove any insoluble solids, dissolved in 0.5 mL of MilliQ water, and analyzed using
ICP-MS. Samples were submitted to acidic digestion with 2 mL of concentrated HNO3
min to heat to 100°C and keep at 100°C for 60 min. After the digestion, the sample
volumes were precisely adjusted to 5 mL with MilliQ water. Samples were further diluted
30 times with 2% HNO3 solution and their Ru content was analyzed by ICP-MS using
standard mode on NexIon 350 D ICP-MS instrument (PerkinElmer). Yttrium was added
as an internal standard at a concentration of 2 ppb to all the solution and Ru quantitation
was performed using an external calibration curve with standards in the 0.05-50 ppb

[2] = n-octanol/water partition coefficient (shake-flask, ICP-MS)
Protocol: The saturated solutions were filtered
(DigiPREP Jr. 15ml, 40 Pos, SCP Science). The digestion program was the following: 15
After the digestion, the sample
Samples were further diluted
range. All measurements were performed in triplicates.
lipophilicity of a compound. This assay was performed following the Shake-flask method
organic and aqueous phase. Aliquots of each phase were taken and analyzed separately
range. The partition coefficient was calculated as P!"=
respectively. All measurements were performed in triplicates.

MCF-7 = assay: MTT cytotoxicity assay, MCF-7 cells; format: cell-based, human; conditions: MTT
Protocol: The cytotoxicity of 1–11CA was assessed against human breast cancer MCF-7 and MDA-MB-231 cells, and non-tumorigenic adherent mouse fibroblast connective tissue L929 cells using the MTT assay after 24 and 72 h (Tables S5 ^† and Table 1, respectively).
Then, necessary dilutions were made using the supplement DMEM, to prepare the range of tested concentrations. Since DMSO was used to solubilize the compounds, a supplemented DMEM + DMSO (at the same percentage as in the sequential dilutions) was considered as a control in the 3-[4,5-dimetylthiazole-2-yl]-2,5-diphenyltetrazolium bromide (MTT) assay.
L929, MCF-7, and MDA-MB-231 cell lines were cultured in DMEM supplemented with 10% (v/v) FBS and 1% (v/v) of penicillin–streptomycin. The cells were incubated in a humidified chamber at 37 °C under saturated air with a 5% CO2 atmosphere. Cells were passed at 80%–90% of confluency with 0.25% (w/v) trypsin and the cell culture media was changed every 2–3 days.
The compounds were tested on two breast cancer cell lines (MCF-7 and MDA-MB-231) and L929 fibroblasts, used as a reference for the safety evaluation according to ISO 10993-1:2009 “Biological evaluation of medical devices”. Cells were seeded on sterile 96-well plates at 50 000 cells per well (L929) and 20 000 cells per well (MCF-7 and MDA-MB-231) in supplemented DMEM medium (100 μL) for 24 h. The culture medium was removed and new media containing different concentrations of the compounds (0–1000 μM) was added to the wells (100 μL). Control cells were incubated under the same conditions in the absence of a compound. Cells were incubated for 24 and 72 h under the same conditions described above. Then, the medium was removed, and the cells were incubated with 3-(4,5-dimethylthiazol-2-yl)-2,5-diphenyltetrazolium bromide (MTT; 0.5 mg mL^−1) for 3 h. After this time, the medium was removed, and formazan crystals were solubilized with DMSO (100 μL per well). The absorbance in each well was read on a SynergyTM HT Multimode microplate reader (BioTek Instruments; Winooski, VT, USA) at 570 and 630 nm (for background correction), and the cell viability was calculated according to the following equation (eqn (1)):1 [drawing 3] where OD570(sample) and OD630(sample) are the optical densities of the solutions containing the compounds and OD570(control) and OD630(control) are controls without compound.
Each apoptosis value determination represents the mean ± standard deviation of 2 independent assays. The IC50 values were obtained using GraphPad Prism software and ANOVA (analysis of variance) was performed to determine the statistical difference between the IC50 values of different cell lines.

ctDNA = assay: Circular dichroism / induced circular dichroism with calf thymus DNA
Protocol: Calf thymus (ct) DNA (Merck®) was used to perform the circular dichroism assay to detect conformational changes in the ctDNA induced by the compounds. CD spectral data was collected on a Chirascan™ V100 (Applied Photophysics) spectropolarimeter equipped with a large area Avalanche photodiodes detector and computer-controlled thermoelectrical cell holder using a 1 cm path length quartz cuvette. CD spectra of ctDNA in the absence and presence of different concentrations of 11Cl were recorded at wavelengths ranging from 320 to 190 nm under constant nitrogen flush at 25 °C. For each CD spectrum, the number of scans was set to 5, and spectral data were collected at 0.1 ms intervals. Additionally, methyl green (MG) and 4′,6-diamidino-2-phenylindole (DAPI), and propidium iodide (PI) were analyzed as minor and major groove binders and as an intercalator, respectively, to help identify the binding mode of 11Cl to DNA. Samples were prepared in 10 mM Tris-HCl buffer (pH 7.6) with 1 mM EDTA. The concentration of ctDNA was fixed at 100 μM (concerning base pairs) and the ctDNA to 11Cl ratio was varied between 0 and 1. The samples were incubated for 24 h at 37 °C and then analyzed in the CD spectropolarimeter.

[3] = Stability in solution (ESI-MS, NMR); conditions: 1 mM
Protocol: The stability of 11CA under pseudo-physiological conditions was assessed using ESI-MS and ^1H and ^31P NMR spectroscopy.
Stability studies were performed on 11CA over 72 h at 37 °C.
The stability of 11Cl was also monitored over
72 h via 1H and 31P NMR spectroscopy. The complex was fully dissolved in d6-DMSO,
diluted with D2O to reach 10% d6-DMSO in D2O (1 mM final concentration) and, finally,
the pD was adjusted to 7.2 ± 0.1 (neutral conditions). Furthermore, the stability of 11Cl
and 11BPh4 was also assessed in 100% d6-DMSO (1 mM final concentration) as a highly

Compound: Cc1ccccc1.[Cl-].[Cl][Ru+]([PH](c1ccccc1)(c1ccccc1)c1ccccc1)[PH](c1ccccc1)(c1ccccc1)c1ccccc1 [Compound 11Cl, [Ru(η^6-toluene)(PPh3)2Cl]Cl]
- Solubility (μM) [1]: 528 ± 88 µM
- Solubility (μg/mL) [1]: 416 ± 70 µg/mL
- LogPow [2]: 1.48 ± 0.29
- IC50 (MCF-7; 24 h exposure, read-out: IC50 (µM) (average ± standard deviation) 24 h MCF-7): 4 ± 0.3 µM
- IC50 (MCF-7; 72 h exposure, read-out: IC50 (μM) (average ± standard deviation) 72 h MCF-7): 0.061 ± 0.003 µM
- CD band 210 nm, intensity change (ctDNA; DNA, 24 h, 37 °C): decrease in the ellipticity
- CD band 210 nm, wavelength shift (ctDNA; DNA, 24 h, 37 °C): remained unchanged
- CD band 220 nm (hydrogen bonding), intensity change (ctDNA; DNA, 24 h, 37 °C): increase in the circularity
- CD band 220 nm (hydrogen bonding), wavelength shift (ctDNA; DNA, 24 h, 37 °C): small bathochromic (red) shift
- CD band 246 nm (helicity), intensity change (ctDNA; DNA, 24 h, 37 °C): decrease in the ellipticity
- CD band 246 nm (helicity), wavelength shift (ctDNA; DNA, 24 h, 37 °C): remained unchanged
- CD band 268−280 nm (base-pair stacking interactions), intensity change (ctDNA; DNA, 24 h, 37 °C): decrease in the ellipticity
- CD band 268−280 nm (base-pair stacking interactions), wavelength shift (ctDNA; DNA, 24 h, 37 °C): remained unchanged
- decrease of the intensity of the ICD bands of DAPI (ctDNA; DNA–DAPI after treatment with 11Cl): 35%
- decrease of the intensity of the ICD bands of MG (ctDNA; DNA–MG after treatment with 11Cl): 20%
- stability by NMR spectroscopy in neutral conditions ([3]; 10% d6-DMSO in D2O, pD 7.2, 72 h): No signs of hydrolysis or decomposition were observed
- stability in DMSO (NMR) ([3]; 100% d6-DMSO, 72 h): No changes were observed

— PMC10442743 (Dalton Transactions (Cambridge, England : 2003), 2023)
